Reference: patent publication US20090176817A1, “Method of Treatment of Diarrhea-Predominant Irritable Bowel Syndrome in a Subject” (priority 2005, published 2009)

How the values were obtained:
healthy subjects = assay: Study S.241.2.104: gastric visceral perception (barostat); format: in vivo, human
Procedure: The effect of cilansetron on gastric perception was evaluated in a randomized, double-blind, placebo-controlled, parallel-group study in 44 male and female healthy subjects (ITT population; 22 subjects received placebo and 22 received 8 mg cilansetron), aged 19-43 years. Subjects received cilansetron 8 mg TID orally for 7 days and gastric distension tests were done at baseline (Day 1, prior to dosing) and poststudy (Day 8). An electronic barostat was used to produce isobarometric distensions (starting from 2 mmHg, progressive distensions in 2 mmHg increments were performed every 2 minutes until gastric pain occurred or an upper limit of 20 rnrnHg was reached) and isovolumetric distensions (starting from an initial volume of 200 mL, progressive distensions in 100 mL increments were performed every 2 minutes until gastric pain occurred or an upper limit of 1100 mL was reached). The primary efficacy parameter was the difference in pain threshold from baseline to poststudy, measured by the amount of distension pressure inducing gastric pain. Secondary parameters were the mean distension pressure/volume inducing the first feelings of gastric sensation and gastric discomfort, and changes in bowel habits over the treatment period. A 2-sample t-test was used to compare baseline-adjusted pain threshold and other secondary efficacy parameters between cilansetron and placebo treatments.

[1] = system: non-constipated IBS subjects; assay: Study S241.2.113: Phase II dose-ranging efficacy; format: in vivo, human
Procedure: Study S241.2.113 was a Phase II, double-blind, placebo-controlled, randomized, multi-center, parallel-group, dose-ranging study to investigate the efficacy and safety of cilansetron in nonconstipated subjects with irritable bowel syndrome. The study was conducted in 55 study centers in Canada, France, Austria, Germany, United Kingdom, Italy, Belgium, and The Netherlands. A total of at least 88 subjects per treatment group evaluable for efficacy were planned, in total 440 to complete the study; 776 subjects were screened; 485 subjects were randomized (479 in the safety sample). Diagnosis and main criteria for inclusion were IBS subjects satisfying the Rome criteria (1992) and minimum abdominal pain/discomfort, stool frequency and consistency determined during the run-in period.
Subjects were treated with cilansetron 1 mg, 2 mg, 4 mg and 16 mg tablets given orally TID or matching placebo tablets given orally TID for 12 weeks.
The primary efficacy parameter was the weekly global question concerning adequate relief of IBS symptoms (abdominal pain/discomfort, abnormal bowel habits). A responder is a subject who responded “Yes” at least 50% of the time after randomization, with a minimum treatment duration of four weeks.

clinical = conditions: human, in vivo, po
Procedure: Two randomized, double-blind, placebo controlled, rising dose, crossover studies evaluated the single-dose pharmacokinetics of oral cilansetron over a 4 mg to 64 mg dose range. In one study, 24 male subjects (aged 21-36 years) received, at intervals of […], single oral doses of 4, 8, and 16 mg cilansetron in ascending order and a randomized placebo. In the other study, 24 male subjects received, at intervals of ≧1 week, single oral doses of 16, 32, and 64 mg cilansetron in ascending order and a randomized placebo. All doses were administered under fasted conditions. […] Renal excretion of cilansetron was negligible across all doses, with undetectable or very low amounts (<1% of the dose) excreted unchanged in urine.
Data for the evaluation of dose proportionality of oral cilansetron is available from three studies which have evaluated the pharmacokinetics of single doses over a 2 mg to 64 mg dose range. Two randomized, double-blind, placebo controlled, rising dose, crossover studies, in 24 male subjects each, evaluated the single dose pharmacokinetics of oral cilansetron (capsules) over a 4-16 mg and 16-64 mg dose range, respectively. In each study, subjects received, at intervals of ≧1 week, single oral doses of cilansetron in ascending order and a randomized placebo. All doses were administered under fasted conditions. A third open-label, randomized, parallel-group study in 36 male and female subjects, evaluated the single dose pharmacokinetics of a cilansetron 2 mg tablet administered under fed conditions. FIG. 16 to FIG. 19 present box plots of cilansetron AUC(0-inf) and Cmax from these three studies (males only), and corresponding dose-normalized values (normalized to a 1 mg dose). […] Table 2.7.2.3.14 presents descriptive statistics of cilansetron dose-normalized AUC and Cmax in these studies, and the results of statistical comparisons between doses.

serum proteins = assay: in vitro; conditions: both, human, plasma, Plasma protein bound
Procedure: The ex vivo protein binding of cilansetron and its 4-hydroxy metabolites has been measured in serum samples collected in a multiple-dose study in healthy and renally impaired male and female subjects, aged 33-74 years. […] Healthy subjects were matched to renally-impaired subjects with respect to age, weight, gender, and smoking status. All subjects received oral cilansetron 2 mg TID on Days 1 to 5, and a single dose on the morning of Day 6.

[2] = both, human, in vivo
Procedure: In a single-dose, crossover study conducted to evaluate the potential for a drug-drug interaction between liquid Maalox and cilansetron, 12 male and 12-female subjects (aged 19-39 years) received single doses of cilansetron 16 mg alone and cilansetron 16 mg+Maalox in a crossover fashion under fasted conditions. Blood samples for measurement of plasma cilansetron pharmacokinetics were collected up to 24 hours postdose following each treatment.
The effect of concomitantly administered antacid (liquid Maalox) on the pharmacokinetics of cilansetron has been evaluated in a single-dose, crossover study in 24 healthy, male and female subjects, aged 19 to 39 years. Subjects received the following two treatments during each of the study periods in a crossover fashion: a single oral dose of cilansetron 16 mg tablet (reference treatment); a single oral dose of cilansetron 16 mg tablet+20 mL oral Maalox liquid administered every 4 hours (test treatment; 4 doses of Maalox in total; cilansetron was administered 5 minutes after the first dose of Maalox). Both cilansetron treatments were administered under fasted conditions.

[3] = 8 mg TID oral 7 days, Day 8, arith. mean
[4] = 8 mg TID oral 7 days, arith. mean
[5] = 8 mg TID oral 7 days, baseline-adjusted, 2-sample t-test, significant (p < 0.01)

## Cc1nccn1C[C@H]1CCc2c(c3cccc4c3n2CCC4)C1=O [Cilansetron, (R)-(−)-4,5,6,8,9,10-hexahydro-10-[(2-methyl-1H-imidazol-1-yl)methyl]-11H-pyrido-[3,2,1-jk]-carbazol-11-one]
Healthy subjects; 8 mg TID 7 days
  Mean gastric pain threshold raised vs baseline: 1.9 mmHg
Healthy subjects; [3]
  Pressure first producing gastric discomfort, Poststudy: 11.9 mmHg
  Pressure first producing gastric pain, Poststudy: 15.4 mmHg
  Pressure first producing gastric sensation, Poststudy: 8.9 mmHg
  Volume first producing gastric pain, Poststudy: 764 mL
Healthy subjects; [4]
  Pressure first producing gastric discomfort, Change from Baseline: 0.9 mmHg
  Pressure first producing gastric pain, Change from Baseline: 1.9 mmHg
  Pressure first producing gastric sensation, Change from Baseline: 0.9 mmHg
  Volume first producing gastric pain, Change from Baseline: 77 mL
Healthy subjects; 8 mg TID oral 7 days, baseline-adjusted, 2-sample t-test
  Volume first producing gastric pain, Difference cilansetron versus placebo: -18 mL
Healthy subjects; [5]
  Pressure first producing gastric discomfort, Difference cilansetron versus placebo: 2.2 mmHg
  Pressure first producing gastric pain, Difference cilansetron versus placebo: 2.8 mmHg
  Pressure first producing gastric sensation, Difference cilansetron versus placebo: 2.1 mmHg
Healthy subjects; in vivo
  Gastric discomfort threshold raised: 0.9 mmHg
  Gastric pain threshold mean increase vs placebo: 2.8 mmHg
  Gastric sensation threshold raised: 0.9 mmHg
  Mean volume to reach gastric pain threshold raised: 77.3 mL
Healthy subjects; vs placebo
  Gastric discomfort threshold treatment increase: 2.2 mmHg
  Gastric sensation threshold treatment increase: 2.1 mmHg
  Volume difference between treatments: -18.0 mL
[1]; 1 mg TID
  Responder rate higher than placebo: 11%
[1]; 2 mg TID
  Responder rate better than placebo: 22%
[1]; 4 mg TID
  Responder rate higher than placebo: 8%
[1]; 16 mg TID
  Responder rate higher than placebo: 18%
clinical; 32 mg
  CL/F: 2487 (79) mL/min
clinical; 64 mg
  CL/F: 1910 (60) mL/min
clinical; male
  DN-AUC(0-inf) ratio 32 mg/16 mg: 127%
  DN-AUC(0-inf) ratio 64 mg/16 mg: 158%
  DN-AUC(0-inf) ratio 64 mg/32 mg: 125%
  DN-AUC(0-last) ratio 32 mg/16 mg: 132%
  DN-AUC(0-last) ratio 64 mg/16 mg: 168%
  DN-AUC(0-last) ratio 64 mg/32 mg: 127%
  DN-Cmax ratio 32 mg/16 mg: 127%
  DN-Cmax ratio 64 mg/16 mg: 164%
  DN-Cmax ratio 64 mg/32 mg: 129%
clinical; male, 16 mg
  CL renal: 3.39 mL/min
  Tmax: 1 h
clinical; male, 32 mg
  AUC(0-inf): 330 ng·h/mL
  AUC(0-t): 324 ng·h/mL
  CL renal: 5 mL/min
  Cmax: 143 ng/mL
  Tmax: 1 h
  Vd/F: 269 L
  half-life: 76.8 min
clinical; male, 64 mg
  AUC(0-inf): 813 ng·h/mL
  AUC(0-t): 807 ng·h/mL
  CL renal: 4.5 mL/min
  Cmax: 349 ng/mL
  Tmax: 1 h
  Vd/F: 204 L
  half-life: 78 min
Serum proteins
  fraction unbound: ~0.04
[2]
  AUC (0-inf) Ratio (Treatment B/A): 100%
  AUC (0-last) Ratio (Treatment B/A): 100%
  Cmax Ratio (Treatment B/A): 87%
[2]; 16 mg
  AUC and Cmax lower in males than in females: 56%
  Mean Cmax decrease with Maalox: 13%
  Mean half-life lower in males than in females: 41%
